Tests used:
[1] = system: ECF-resistant MKN-74 cells; assay: Crystal violet staining and WST-1 analysis of regrowth after ECF treatment of NINJ2 knockdown cells; type: cell-based, human; details: 3 weeks after ECF treatment; NINJ2 knockdown ECF-resistant MKN-74 cells
Protocol: To evaluate whether NINJ2 is involved in drug resistance, a stable NINJ2 knockdown (K/D) ECF-resistant cancer cell line was prepared using shRNA lentiviral particles and puromycin. More specifically, for stable NINJ2 knockdown in ECF-resistant MKN-74 cells, two shRNAs (TRCN0000063773 (Clone-1) and TRCN0000063775 (Clone-2)) targeting different partial regions of NINJ2 genes (Isoform-1, Isoform-2 and Isoform-3) as shown in Table 1 below were used, and a non-targeting pLKO.1-puro shRNA control (SHC002) was used as a negative control. The shRNA clones (TRCN0000063773, TRCN0000063775 and SHC002) containing the pMDLg/pRRE, pRSV-Rev and pMD2.G plasmids, respectively, were transfected into 293T cells using Fugene HD (Promega) according to the manufacturer's instructions. After 48 hours, each supernatant was collected and filtered, and ECF-resistant MKN-74 cells were transduced with lentiviral particles and cultured in a growth medium containing puromycin. After NINJ2 knockdown in the lentivirus-transduced MKN-74 cells was confirmed using qRT-PCR, the cells were treated with ECF, and an examination was made as to whether cancer cells in the negative control (Mock) and the shNINJ2 groups (clone 1 and clone 2) re-grew.

[2] = system: ECF-resistant cancer cells (RES) from the MKN-28/74 cell line; assay: Nude mouse xenograft of ECF-resistant MKN-28/74 cells given ECF and siRNA; type: in vivo, Balb/c nude mice; details: ECF (5.7 mg/kg epirubicin, 6.67 mg/kg cisplatin, 22 mg/kg 5-FU) intratumorally once a week; NINJ2 mRNA expression inhibited
Protocol: FIGS. 9A and 9B show the results of measuring changes in tumor volume and weight after transplanting wild-type or scrambled siRNA RES and siNINJ2 RES cancer cell lines from the MKN-28/74 cell line into nude mice and then administering ECF and siRNA to the nude mice when the tumor volume reached 100 mm^3, according to one example of the present invention.
A mouse model was prepared by xenografting Balb/c nude mice with the spheroids prepared from the MKN-28/74 cell line by the method of Example 3. Specifically, […] ECF-resistant cancer cells (ECF-R cancer cells) and parental cancer cells were subcutaneously injected into Balb/c nude mice, respectively, and an examination was made as to whether the animal model xenografted with the ECF-resistant cancer cells (RES) established in vitro had acquired ECF drug resistance. […] To this end, 5.7 mg/kg of epirubicin, 6.67 mg/kg of cisplatin and 22 mg/kg of 5-FU were administered intratumorally to xenograft model mice having a tumor size of 100 mm^3 once a week for 15 days, and the tumor weight and the tumor volume were measured every 3 days using digital calipers. […]
Referring to FIG. 9A, it was confirmed that the tumor volume changed after the ECF drugs were administered to the animal model xenografted with each cell line group. FIG. 9B depicts graphs showing the results of quantifying the changes in the tumor volume and weight.

| Substance | recurrence and regrowth of cancer cells compared to negative control (Mock) [1] | tumor volume compared to the RES group [2] | tumor weight compared to the RES group [2] |
| --- | --- | --- | --- |
| clone-1: NINJ2-targeting shRNA, lentiviral; target region SEQ ID NO: 5, hairpin sequence SEQ ID NO: 9 (guide CCGGCGTGGTCATTGCACGGCTGAACTCGAGTTCAGCCGTGCAATGACCACGTTTTTG) | significantly inhibited |  |  |
| clone-2: NINJ2-targeting shRNA, lentiviral; target region SEQ ID NO: 6, hairpin sequence SEQ ID NO: 10 (guide CCGGCTGAACCTGAATGAGGTAGAACTCGAGTTCTACCTCATTCAGGTTCAGTTTTTG) | significantly inhibited |  |  |
| siNINJ2: siRNA against NINJ2, sense SEQ ID NO: 11 and antisense SEQ ID NO: 12 (sense GUAAGGCAUGUCUGUCUAAGGCC; antisense GGCCUUAGACAGACAUGCCUUAC; listed as RNA, chemistry not given here) |  | significantly decreased | significantly decreased |
